The text below walks through data of publication PMC6152194 (Molecules : A Journal of Synthetic Chemistry and Natural …, 2017).

The target in assay [1] is T1, horse BChE (Equus caballus, UniProt P81908).
T1 construct: purchased Worthington Biochemical Corporation
The note with it: hydrolysis of BSCh by horse BChE, same conditions; cited from earlier work.

In assay [2] the target is T1, horse BChE. As to the kind of experiment: biochemical. Type of assay: biochemical. To be noted: for type of inhibition: hydrolysis of 50 μM BSCh, progress curves to 600 s; for Kon: pH 7.0. An excerpt:
Purified horse BChE was from Worthington Biochemical Corporation, dithio-bis-di-nitro benzoic acid and butyrylthiocholine iodide (BSCh) were from Sigma, tetramethylammonium iodide (TMA), tetraethylammonium iodide (TEA), edrophonium chloride (EDR), and methanesulfonylfluoride (MSF) were from BDH; decamethonium bromide (DME) was from Koch Light Laboratories; sodium fluoride and d-Tubocurarine were from Fluka AG. N-((1-benzylpiperidin-3-yl)methyl)-N-methylnaphthalene-2-sulfonamide (942) was synthesized in the Faculty of Pharmacy, University of Ljubljana (Ljubljana, Slovenia). All other reagents used were of analytical grade. The experiments were carried out at 25 °C in 25 mM phosphate buffer, pH 7.0.
A series of compounds were tested by measuring the progress curves for BSCh hydrolysis by horse BChE in the absence and presence of each compound at a single concentration over 10 min, in a 0.6 mL cuvette, using the method of Ellman et al.. […] The concentration of horse BChE, which was always added last, was ~1 nM, for hydrolysis of 50 μM BSCh to completion (in most cases), in the presence of 1 mM dithio-bis-di-nitro benzoic acid. Reaching the plateau was important to get an exact estimate of the actual initial BSCh concentration. This was achieved by conversion of the change in absorbance at 412 nm of the resulting thio-nitro benzoate, using a molar absorption coefficient of 13,800 mol^−1 cm^−1. All of the measurements were conducted using a conventional spectrophotometer (Lambda 45/Vis; Perkin-Elmer), and a 10-s lag period was added before the start of each measurement. The progress curves were then extrapolated to start at the origin prior to the analysis.
The progress-curve analysis was performed using the ENZO web application (Figure 2), implemented at www.enzo.cmm.ki.si. For rapid determination of the kinetics mechanisms and parameters, the Van Slyke–Cullen reaction scheme for substrate hydrolysis by horse BChE was combined with a reversible competitive inhibition mechanism, as expected for active-site-directed ligands. […] In the initial evaluation, all of the second-order binding rate constants (kon’s), although not the constant for MSF, were set to the diffusion rate-limited value of 2 ×10^8 M^−1 s^−1. Therefore, only the first-order dissociation rate constants, together with the substrate specificity constant kcat/Km, the initial substrate concentration, and the added horse BChE active-site concentration, had to be evaluated. The kcat of 663 s^−1 for the hydrolysis of BSCh by horse BChE was taken from a previous study performed under the same conditions.
Therefore, a similar experiment was performed, but in the presence of three additional sodium fluoride concentrations (0.25, 1, 2.5 mM). Each of these measurements was performed twice in a row to determine the reliability of the data obtained. The progress curve analysis was then performed using four types of classical inhibition mechanisms: competitive, uncompetitive, non-competitive, and mixed. Again, a 10-s lag period was added to the time-course of each measurement prior to the analysis using the ENZO web application.

Setting [3] is: 50 μM BSCh, 25 °C, 25 mM phosphate buffer pH 7.0, single progress curve, competitive mechanism, read-out: Ki.
The mark [4] stands for this setting: slow isomerization step after instantaneous binding, 50 μM BSCh.

“And” between values parts separate entries of the source, which are not always exact repeats. Equal entries are not always repeated. Where two headings read alike, the source gives them in different places.

T1 sequence (P81908 whole entry): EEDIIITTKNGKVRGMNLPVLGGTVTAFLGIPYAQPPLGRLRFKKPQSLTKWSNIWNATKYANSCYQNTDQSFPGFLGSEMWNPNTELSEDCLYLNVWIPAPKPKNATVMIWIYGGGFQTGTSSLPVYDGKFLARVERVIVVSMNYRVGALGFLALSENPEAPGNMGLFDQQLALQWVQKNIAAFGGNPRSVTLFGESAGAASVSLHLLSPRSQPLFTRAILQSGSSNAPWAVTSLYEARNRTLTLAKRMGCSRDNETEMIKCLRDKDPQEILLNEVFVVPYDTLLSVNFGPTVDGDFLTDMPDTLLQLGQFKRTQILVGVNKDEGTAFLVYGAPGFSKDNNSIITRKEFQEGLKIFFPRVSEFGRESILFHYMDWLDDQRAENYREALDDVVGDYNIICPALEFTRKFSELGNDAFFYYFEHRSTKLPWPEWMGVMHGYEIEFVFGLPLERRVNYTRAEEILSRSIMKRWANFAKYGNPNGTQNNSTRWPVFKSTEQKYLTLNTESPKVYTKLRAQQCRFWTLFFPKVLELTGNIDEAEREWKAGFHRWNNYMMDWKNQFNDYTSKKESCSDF

With `CCCC(=O)SCC[N+](C)(C)C.[I-]` [BSCh, butyrylthiocholine iodide], the kcat (in general, the maximal rate divided by the concentration of active sites) on horse BChE [1] was 663 s⁻¹.

On to `C[N+](C)(C)CCCCCCCCCC[N+](C)(C)C` [Decamethonium, decamethonium bromide], for which, on horse BChE [2], the Ki (commonly a measure of affinity in units of concentration, obtained from inhibition or displacement) is 7.6 µM and the type of inhibition result is “reversible competitive inhibitors”.

For `CC[N+](C)(C)c1cccc(O)c1` [Edrophonium, edrophonium chloride], at horse BChE [2], the affinity corresponds to a Ki of 21 µM and the type of inhibition entry is recorded as “reversible competitive inhibitors”.

Consider `CS(=O)(=O)F` [Methanesulfonylfluoride, methanesulfonylfluoride], for which the type of inhibition result at horse BChE [2] was “irreversible inhibitor”. This molecule displayed a Kon at horse BChE [2] (irreversible inhibition step, 15 mM MSF, 50 μM BSCh, 25 °C) of 0.39 s⁻¹.

With `[F-].[Na+]` [Sodium fluoride, sodium fluoride], the Ki at horse BChE [2] (competitive component of mixed inhibition, from Figure 3, 0.25, 0.5, 1 and 2.5 mM sodium fluoride, 50 μM BSCh, read-out: Ki) was 830 µM. Moreover, the type of inhibition result on horse BChE [2] is recorded as “mixed reversible inhibitor”. In addition, the “uncompetitive component stronger than the competitive component” value on horse BChE [2] (mixed inhibition model, Table 1) was 2.4 fold. The molecule also came in with a Kii at horse BChE [2] (uncompetitive component of mixed inhibition, from Figure 3, 0.25, 0.5, 1 and 2.5 mM sodium fluoride, 50 μM BSCh) of 0.34 mM.

Regarding `CC[N+](CC)(CC)CC.[I-]` [Tetraethylammonium, tetraethylammonium iodide], the Ki on horse BChE [2] (setting [3]) is 1500 µM. The type of inhibition entry on horse BChE [2] is given as “reversible competitive inhibitors”.

For the molecule `C[N+](C)(C)C.[I-]` [Tetramethylammonium, tetramethylammonium iodide], the Ki on horse BChE [2] (setting [3]) came to 2400 µM. The type of inhibition entry on horse BChE [2] was “reversible competitive inhibitors”.

`CN(CC1CCCN(Cc2ccccc2)C1)S(=O)(=O)c1ccc2ccccc2c1` (centres unmarked) [compound 942, N-((1-benzylpiperidin-3-yl)methyl)-N-methylnaphthalene-2-sulfonamide]: the Kon on horse BChE [2] (association rate constant, 50 μM BSCh, 25 °C) is 6.2e+07 M⁻¹ s⁻¹ and 6.2 M⁻¹ s⁻¹. Besides, the type of inhibition result at horse BChE [2] was “tight binder”. At horse BChE [2] (read-out: Ki), the Ki was 0.00043 µM.

Consider `COc1cc2c3cc1Oc1cc(ccc1O)C[C@@H]1c4c(cc(OC)c(O)c4Oc4ccc(cc4)C[C@@H]3N(C)CC2)CC[N+]1(C)C` [d-Tubocurarine], for which, on horse BChE [2], the Ki is 5.1 µM and the type of inhibition result was “slow binder”. Also, on horse BChE [2] (setting [4]), the “K+isomerization” value was determined as 0.029 s⁻¹ and the K-isomerization was 0.010 s⁻¹.

For the molecule `[I-].[Na+]` [sodium iodide], at horse BChE [2] (at 0.5 mM, data not shown), the “inhibition of BSCh hydrolysis” value is “no inhibition”.
